Laboratory results: patent US8785470B2, “Heterocyclic compounds and uses thereof” (Infinity Pharmaceuticals, Inc., priority 2011, dated 2014)
Read-outs that look alike come from different tables or passages of the source.

What was measured:
PI3Kδ = molecular target: T1, PI3Kδ (Homo sapiens, UniProt O00329); assay: PI3-Kinase HTRF assay, PI3Kδ; format: biochemical; conditions: 10 μM ATP, PIP2 at 10 μM
T1 construct: purchased Millipore Corporation 14-604-K
From the text: (§1) A PI3-Kinase HTRF® assay kit (cat No. 33-016) purchased from Millipore Corporation was used to screen compounds provided herein. This assay used specific, high affinity binding of the GRPI pleckstrin homology (PH) domain to PIP3, the product of a Class 1A or 1B PI3 Kinase acting on its physiological substrate PIP2. During the detection phase of the assay, a complex was generated between the GST-tagged PH domain and biotinylated short chain PIP3. The biotinylated PIP3 and the GST-tagged PH domain recruited fluorophores (Streptavidin-Allophycocyanin and Europium-labeled anti-GST respectively) to form the fluorescence resonance energy transfer (FRET) architecture, generating a stable time-resolved FRET signal. The FRET complex was disrupted in a competitive manner by non-biotinylated PIP3, a product formed in the PI3 Kinase assay.
(§2) PI3 Kinase α, β, γ and δ activity was assayed using the PI3 Kinase HTRF® assay kit (catalogue No. 33-016) purchased from Millipore Corporation. Purified recombinant PI3Kα (catalogue No. 14-602-K), PI3Kβ (catalogue No. 14-603-K), PI3Kγ (catalogue No. 14-558-K) and PI3Kδ (catalogue No. 14-604-K) were obtained from Millipore Corporation. Purified recombinant PI3K enzyme was used to catalyze the phosphorylation of phosphatidylinositol 4,5-bisphosphate (PIP2 at 10 μM) to phosphatidylinositol 3,4,5-trisphosphate (PIP3) in the presence of 10 μM ATP. The assay was carried out in 384-well format and detected using a Perkin Elmer EnVision Xcite Multilabel Reader. Emission ratios were converted into percent inhibitions and imported into GraphPad Prism software. The concentration necessary to achieve inhibition of enzyme activity by 50% (IC50) was calculated using concentrations ranging from 20 μM to 0.1 nM (12-point curve). IC50 values were determined using a nonlinear regression model available in GraphPad Prism 5. […]

Balb/c splenic B cells = assay: B cell activation and proliferation assay; format: cell-based; conditions: Mus musculus, read-out: B cell proliferation EC50
In short: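 Read-out is metabolic activity by Alamar Blue reduction (5 h, 560Ex/590Em) after 72 h at 37° C, reported as IC50 or EC50. Compound (0.2% DMSO) was added 30 min before a cocktail holding 10 μg/ml LPS or 5 μg/ml F(ab′)2 anti-IgM with 2 ng/ml mouse IL4. Cells were purified Balb/c splenic B cells, 50.000 per well.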

PI3Kβ = molecular target: T2, PI3Kβ (Homo sapiens, UniProt P42338); assay: PI3-Kinase HTRF assay, PI3Kβ; format: biochemical; conditions: bins Greater than 10 μM and Greater than 1 μM to 10 μM; 10 μM ATP, PIP2 at 10 μM
T2 construct: purchased Millipore Corporation 14-603-K
In short: (§3)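 Competitive time-resolved FRET readout of PIP3 formed from 10 μM PIP2 with 10 μM ATP, 1 h at room temperature, by each recombinant human isoform (α, β, γ, δ; 0.25-0.3 μg/ml). Compound (2% DMSO final) was preincubated 15 min with enzyme and substrate; IC50 fitted over 20 μM–0.1 nM, 12 points.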

PI3Kγ = molecular target: T3, PI3Kγ (Homo sapiens, UniProt P48736); assay: PI3-Kinase HTRF assay, PI3Kγ; format: biochemical; conditions: 10 μM ATP, PIP2 at 10 μM
T3 construct: purchased Millipore Corporation 14-558-K
From the text: as §1, §2

PI3Kα = molecular target: T4, PI3Kα (Homo sapiens, UniProt P42336); assay: PI3-Kinase HTRF assay, PI3Kα; format: biochemical; conditions: 10 μM ATP, PIP2 at 10 μM, read-out: IC50 P13Kα
T4 construct: purchased Millipore Corporation 14-602-K
In short: as §3

[1] = test system: phospho-AKT in RAW 264.7 cells (PI3Kγ); assay: PI3Kγ selective assay, phospho-AKT in RAW 264.7 cells; format: cell-based; conditions: Mus musculus, RAW264.7, stimulated with C5a, read-out: IC50 for phospho-AKT, RAW 264.7 cell model
In short: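 Serum-starved RAW 264.7 macrophages are stimulated with the GPCR agonist C5a and treated with compound before, with or after stimulation. Inhibition is read as reduced C5a-induced phospho-AKT, detected for example with phospho-AKT antibodies.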

[2] = test system: phospho-AKT in SKOV-3 cells (PI3Kα); assay: PI3Kα selective assay, phospho-AKT in SKOV-3 cells; format: cell-based; conditions: Homo sapiens, SK-OV-3, read-out: IC50 for phospho-AKT, SKOV-3 cell model
From the text: (§4) A compound's ability in selectively inhibiting PI3Kα can be assessed using SKOV-3 cells, i.e., human ovarian carcinoma cell line. Briefly, SKOV-3 cells, in which mutant PI3Kα is constitutively active, can be treated with test compounds. Test compounds' ability to inhibit AKT phosphorylation in SKOV-3 cells, therefore, is indicative of selective inhibition of PI3Kα. Thus, by monitoring the reduction of phospho-AKT in SKOV-3 cells (using for example, phospho-AKT antibodies), a compound's potential efficacy in selectively inhibiting PI3Kα can be assessed.
Certain compounds provided herein (e.g., Compounds 5, 49, 138, 326, 328, 354, 359, 389, and 391) were tested in SKOV-3 cell model using procedures as described above.

[3] = test system: phospho-AKT in RAJI cells (PI3Kδ); assay: PI3Kδ selective assay, phospho-AKT in RAJI cells; format: cell-based; conditions: RAJI cells stimulated with anti-human IgM; read-out: IC50 for phospho-AKT, RAJI cell model
In short: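 Serum-starved RAJI B-lymphoma cells stimulated with anti-human IgM to trigger B-cell receptor signaling; compound effect read as reduction of phospho-AKT, for example detected with phospho-AKT antibodies.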

[4] = test system: phospho-AKT in 786-O cells (PI3Kβ); assay: PI3Kβ selective assay, phospho-AKT in 786-O cells; format: cell-based; conditions: Homo sapiens, 786-0, read-out: IC50 for phospho-AKT, 786-O cell model
From the text: as §4, with “PI3Kβ” for “PI3Kα”, “786-O” for “SKOV-3”, “kidney” for “ovarian”, “PI3Kβ” for “mutant PI3Kα”, “PI3β.” for “PI3Kα.”
Certain compounds provided herein (e.g., Compounds 5, 49, 138, 326, 328, 354, 359, 389, and 391) were tested in 786-O cell model using procedures as described above.

[5] = control or reference compounds, 5 μM; cited from earlier work
[6] = column bins 1 μM to 100 nM (given as 100-1000) and Less than 100 nM
[7] = bins Greater than 10 μM and Greater than 1 μM to 10 μM
[8] = ranges less than 100 nM and between 100 nM and 1 μM (given as 100-1000)
[9] = ranges between 1 μM and 10 μM and greater than 10 μM
[10] = range between 100 nM and 1 μM (given as 100-1000)

T1 sequence (O00329 whole entry): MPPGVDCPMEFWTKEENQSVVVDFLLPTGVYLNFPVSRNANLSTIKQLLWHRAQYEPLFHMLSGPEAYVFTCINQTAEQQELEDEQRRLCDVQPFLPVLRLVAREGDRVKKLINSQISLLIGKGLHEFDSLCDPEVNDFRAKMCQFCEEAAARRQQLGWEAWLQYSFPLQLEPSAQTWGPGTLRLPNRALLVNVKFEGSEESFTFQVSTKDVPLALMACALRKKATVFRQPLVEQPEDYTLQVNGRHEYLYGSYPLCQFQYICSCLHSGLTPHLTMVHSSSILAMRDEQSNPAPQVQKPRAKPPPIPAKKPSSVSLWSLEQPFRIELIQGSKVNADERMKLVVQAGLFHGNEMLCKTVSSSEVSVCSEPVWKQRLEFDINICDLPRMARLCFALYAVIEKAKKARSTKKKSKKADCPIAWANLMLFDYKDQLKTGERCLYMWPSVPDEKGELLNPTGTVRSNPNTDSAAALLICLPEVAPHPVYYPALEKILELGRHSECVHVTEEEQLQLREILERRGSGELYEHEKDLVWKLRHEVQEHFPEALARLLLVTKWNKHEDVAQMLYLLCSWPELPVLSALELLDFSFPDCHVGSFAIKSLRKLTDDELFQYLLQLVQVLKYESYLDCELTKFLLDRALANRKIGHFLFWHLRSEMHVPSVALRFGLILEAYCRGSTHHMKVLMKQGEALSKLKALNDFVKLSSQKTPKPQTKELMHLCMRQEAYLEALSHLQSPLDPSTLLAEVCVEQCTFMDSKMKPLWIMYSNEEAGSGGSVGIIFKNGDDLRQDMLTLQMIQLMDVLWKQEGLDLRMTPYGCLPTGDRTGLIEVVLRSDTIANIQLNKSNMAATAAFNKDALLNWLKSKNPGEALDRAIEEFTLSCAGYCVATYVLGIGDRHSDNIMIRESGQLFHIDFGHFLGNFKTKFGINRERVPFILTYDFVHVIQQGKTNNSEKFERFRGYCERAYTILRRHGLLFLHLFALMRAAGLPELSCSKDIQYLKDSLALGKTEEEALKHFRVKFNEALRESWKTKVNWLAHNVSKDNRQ
T1 sequence (P27986 whole entry partner): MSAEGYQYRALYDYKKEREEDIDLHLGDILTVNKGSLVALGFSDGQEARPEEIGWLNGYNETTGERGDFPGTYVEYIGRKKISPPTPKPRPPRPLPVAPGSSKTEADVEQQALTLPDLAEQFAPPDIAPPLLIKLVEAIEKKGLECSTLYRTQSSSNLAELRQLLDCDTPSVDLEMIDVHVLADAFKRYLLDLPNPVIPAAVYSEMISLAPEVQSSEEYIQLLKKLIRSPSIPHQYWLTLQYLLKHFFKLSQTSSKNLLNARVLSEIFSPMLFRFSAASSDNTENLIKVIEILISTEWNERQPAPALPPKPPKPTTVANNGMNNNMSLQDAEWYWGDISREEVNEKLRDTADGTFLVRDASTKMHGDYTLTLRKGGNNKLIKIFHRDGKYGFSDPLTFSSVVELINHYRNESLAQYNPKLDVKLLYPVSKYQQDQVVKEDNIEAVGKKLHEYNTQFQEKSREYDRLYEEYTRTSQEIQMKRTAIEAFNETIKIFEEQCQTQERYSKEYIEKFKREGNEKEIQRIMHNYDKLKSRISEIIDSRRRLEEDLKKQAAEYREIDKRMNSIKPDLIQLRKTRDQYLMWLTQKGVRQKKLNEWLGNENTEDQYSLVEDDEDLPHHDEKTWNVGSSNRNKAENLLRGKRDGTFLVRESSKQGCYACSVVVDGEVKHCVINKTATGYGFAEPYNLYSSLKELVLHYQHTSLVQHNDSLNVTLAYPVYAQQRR
T3 sequence (P48736 whole entry): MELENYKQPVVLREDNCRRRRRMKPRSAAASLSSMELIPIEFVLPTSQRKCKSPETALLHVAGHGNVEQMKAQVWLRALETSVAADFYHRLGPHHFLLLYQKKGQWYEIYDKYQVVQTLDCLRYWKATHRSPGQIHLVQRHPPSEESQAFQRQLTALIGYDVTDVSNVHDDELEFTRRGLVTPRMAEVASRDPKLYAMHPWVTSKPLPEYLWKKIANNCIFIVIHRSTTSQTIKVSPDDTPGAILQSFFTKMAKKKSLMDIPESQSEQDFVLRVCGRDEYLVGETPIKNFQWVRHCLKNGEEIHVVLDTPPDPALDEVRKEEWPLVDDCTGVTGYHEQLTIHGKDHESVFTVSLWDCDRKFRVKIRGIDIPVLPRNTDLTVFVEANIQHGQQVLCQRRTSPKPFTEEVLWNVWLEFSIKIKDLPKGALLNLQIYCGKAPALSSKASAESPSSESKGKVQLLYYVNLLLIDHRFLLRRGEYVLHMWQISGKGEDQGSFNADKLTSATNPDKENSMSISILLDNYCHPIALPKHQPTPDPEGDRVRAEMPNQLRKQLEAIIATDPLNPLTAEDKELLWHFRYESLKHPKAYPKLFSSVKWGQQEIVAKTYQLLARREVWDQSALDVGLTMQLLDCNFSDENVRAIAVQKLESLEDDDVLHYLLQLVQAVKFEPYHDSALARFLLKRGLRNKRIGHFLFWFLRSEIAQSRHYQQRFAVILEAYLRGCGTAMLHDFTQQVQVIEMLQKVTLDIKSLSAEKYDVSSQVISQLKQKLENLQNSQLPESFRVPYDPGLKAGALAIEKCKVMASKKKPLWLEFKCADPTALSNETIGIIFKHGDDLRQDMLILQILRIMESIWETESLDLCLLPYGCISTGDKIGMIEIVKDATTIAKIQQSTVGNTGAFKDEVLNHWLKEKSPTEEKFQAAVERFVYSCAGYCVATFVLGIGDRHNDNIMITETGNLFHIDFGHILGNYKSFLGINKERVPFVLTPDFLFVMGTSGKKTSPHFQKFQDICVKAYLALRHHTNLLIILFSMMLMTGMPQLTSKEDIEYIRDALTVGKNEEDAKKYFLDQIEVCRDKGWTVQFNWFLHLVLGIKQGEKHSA
T4 sequence (P42336 whole entry): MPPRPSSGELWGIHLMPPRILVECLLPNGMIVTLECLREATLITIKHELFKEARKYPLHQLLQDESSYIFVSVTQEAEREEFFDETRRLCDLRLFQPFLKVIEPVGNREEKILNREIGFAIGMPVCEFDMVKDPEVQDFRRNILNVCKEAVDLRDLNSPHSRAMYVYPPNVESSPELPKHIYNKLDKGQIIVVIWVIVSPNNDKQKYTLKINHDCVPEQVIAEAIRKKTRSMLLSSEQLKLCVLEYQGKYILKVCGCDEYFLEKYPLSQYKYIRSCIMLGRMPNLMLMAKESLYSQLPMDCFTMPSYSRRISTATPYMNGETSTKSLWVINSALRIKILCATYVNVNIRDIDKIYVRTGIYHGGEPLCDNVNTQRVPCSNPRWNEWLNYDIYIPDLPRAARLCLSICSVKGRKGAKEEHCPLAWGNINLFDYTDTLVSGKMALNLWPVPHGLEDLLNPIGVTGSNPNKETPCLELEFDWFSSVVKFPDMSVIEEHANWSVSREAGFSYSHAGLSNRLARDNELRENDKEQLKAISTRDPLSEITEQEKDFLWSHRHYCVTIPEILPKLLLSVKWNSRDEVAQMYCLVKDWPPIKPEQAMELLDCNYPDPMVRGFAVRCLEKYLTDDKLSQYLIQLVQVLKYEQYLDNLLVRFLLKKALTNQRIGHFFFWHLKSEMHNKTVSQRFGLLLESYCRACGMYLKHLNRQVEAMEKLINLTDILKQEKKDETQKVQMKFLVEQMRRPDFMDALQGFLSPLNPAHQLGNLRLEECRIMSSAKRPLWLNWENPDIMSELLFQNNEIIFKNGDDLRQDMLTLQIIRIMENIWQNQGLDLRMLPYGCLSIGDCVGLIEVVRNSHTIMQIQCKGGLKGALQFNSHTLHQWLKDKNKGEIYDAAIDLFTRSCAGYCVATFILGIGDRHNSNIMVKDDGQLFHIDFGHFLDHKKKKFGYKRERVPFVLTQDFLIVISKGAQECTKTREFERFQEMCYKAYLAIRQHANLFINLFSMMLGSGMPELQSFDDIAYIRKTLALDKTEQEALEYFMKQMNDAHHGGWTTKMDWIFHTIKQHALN
T4 sequence (P27986 whole entry partner): as the sequence (P27986 whole entry partner) above
T2 sequence (P42338 whole entry): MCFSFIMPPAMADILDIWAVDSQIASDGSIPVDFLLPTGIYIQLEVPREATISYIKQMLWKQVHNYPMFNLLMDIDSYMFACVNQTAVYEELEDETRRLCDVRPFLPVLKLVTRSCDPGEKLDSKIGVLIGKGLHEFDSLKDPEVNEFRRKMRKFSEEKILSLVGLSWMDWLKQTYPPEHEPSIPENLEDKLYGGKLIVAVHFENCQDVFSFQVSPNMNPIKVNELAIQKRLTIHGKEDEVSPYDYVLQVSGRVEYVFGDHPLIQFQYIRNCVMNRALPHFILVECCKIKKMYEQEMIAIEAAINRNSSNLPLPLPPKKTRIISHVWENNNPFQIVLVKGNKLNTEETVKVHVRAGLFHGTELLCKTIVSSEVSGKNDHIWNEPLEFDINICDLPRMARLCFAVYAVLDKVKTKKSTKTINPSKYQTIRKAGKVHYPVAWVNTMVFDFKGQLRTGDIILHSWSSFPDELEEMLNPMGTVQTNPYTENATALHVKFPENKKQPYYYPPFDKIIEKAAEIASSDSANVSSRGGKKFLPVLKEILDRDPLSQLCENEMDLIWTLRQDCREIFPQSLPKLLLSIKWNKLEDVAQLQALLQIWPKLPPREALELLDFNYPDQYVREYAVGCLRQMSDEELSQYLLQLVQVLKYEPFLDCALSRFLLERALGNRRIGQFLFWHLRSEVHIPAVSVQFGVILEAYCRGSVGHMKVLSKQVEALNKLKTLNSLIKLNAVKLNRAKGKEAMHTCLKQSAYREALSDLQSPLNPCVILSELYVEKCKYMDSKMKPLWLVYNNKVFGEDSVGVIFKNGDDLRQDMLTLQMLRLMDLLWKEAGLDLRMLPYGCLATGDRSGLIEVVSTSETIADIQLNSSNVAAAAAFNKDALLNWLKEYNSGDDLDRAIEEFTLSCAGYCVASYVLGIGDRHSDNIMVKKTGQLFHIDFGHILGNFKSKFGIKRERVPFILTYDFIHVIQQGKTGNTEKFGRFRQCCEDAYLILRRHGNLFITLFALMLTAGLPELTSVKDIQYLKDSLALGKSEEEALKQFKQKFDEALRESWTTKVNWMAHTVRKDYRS
T2 sequence (P27986 whole entry partner): as the sequence (P27986 whole entry partner) above

Compound | IC50 (PI3Kβ) [µM] | IC50 (PI3Kα; [7]) [µM] | IC50 (PI3Kδ; [7]) [µM] | IC50 (PI3Kγ; [7]) [µM] | IC50 [1, 8] [µM] | IC50 [2, 9] [µM] | IC50 [3] [µM] | IC50 [4, 9] [µM] | also measured
CCOc1cncc(-c2cccc3cc([C@H](C)Nc4nc(N)ncc4C#N)n(-c4ccccc4)c(=O)c23)c1 [Compound 115] | 1 to 10 |  |  |  |  |  |  |  | IC50 (PI3Kδ; [6]): < 0.1 µM; EC50 (Balb/c splenic B cells; [6]): < 0.1 µM; IC50 (PI3Kγ; [6]): < 0.1 µM; IC50 (PI3Kα; [6]): 0.1 to 1 µM
CCc1ncc(-c2cccc3nc([C@H](C)Nc4nc(N)ncc4C#N)n(-c4ccccc4)c(=O)c23)cn1 [Compound 60] | > 10 | > 10 |  |  |  |  |  |  | IC50 (PI3Kδ; [6]): < 0.1 µM; EC50 (Balb/c splenic B cells; [6]): < 0.1 µM; IC50 (PI3Kγ; [6]): < 0.1 µM
CC(C)[N+](C)(CCOC(=O)C1c2ccccc2Oc2ccccc21)C(C)C [propantheline] |  |  |  |  |  |  |  |  | plasma stability [5]: intermediate plasma stability
COc1ncc(-c2cccc3cc([C@H](C)Nc4nc(N)ncc4C#N)n(-c4ccccc4)c(=O)c23)cn1 [Compound 5, (S)-2-amino-4-((1-(8-(2-methoxypyrimidin-5-yl)-1-oxo-2-phenyl-1,2-dihydroisoquinolin-3-yl)ethyl)amino)pyrimidine-5-carbonitrile] |  | 1 to 10 |  |  | < 0.1 | 1 to 10 | < 0.1 | > 10 | EC50 (Balb/c splenic B cells; [6]): < 0.1 µM
CCOc1nc(-c2cnc(N)nc2N[C@@H](C)c2cc3cccc(-c4ccc(=O)n(C)c4)c3c(=O)n2-c2ccccc2)cs1 [Compound 138] | 1 to 10 | 1 to 10 |  |  | < 0.1 |  | < 0.1 | 1 to 10 | IC50 [2, 10]: 0.1 to 1 µM
Cc1ncc(-c2cccc3cc([C@H](C)Nc4nc(N)ncc4C#N)n(C(C)C)c(=O)c23)cn1 [Compound 328] |  |  |  | 1 to 10 | 0.1 to 1 |  | < 0.1 | 1 to 10 | IC50 [2, 10]: 0.1 to 1 µM
CCCOc1cc(N)ccc1C(=O)OCCN(CC)CC [propoxycaine] |  |  |  |  |  |  |  |  | plasma stability [5]: low plasma stability
C[C@H](Nc1nc(N)ncc1C#N)c1cc2cccc(Cl)c2c(C(=O)NC2CCOCC2)n1 [Compound 354] |  |  | 1 to 10 |  |  | > 10 | < 0.1 | 1 to 10 | IC50 ([1]; range between 1 μM and 10 μM): 1 to 10 µM
COc1cc(N[C@@H](C)c2cc3cccc(Cl)c3c(=O)n2-c2ccccc2)nc(N)n1 [Compound 211] |  |  | 1 to 10 | 1 to 10 |  |  |  |  | EC50 (Balb/c splenic B cells; Greater than 1 μM to 10 μM): 1 to 10 µM

Second part, led by results:

IC50 (PI3Kβ) [µM] | IC50 (PI3Kα; [7]) [µM] | IC50 (PI3Kδ; [7]) [µM] | IC50 (PI3Kγ; [7]) [µM] | IC50 [1, 8] [µM] | IC50 [2, 9] [µM] | IC50 [3] [µM] | IC50 [4, 9] [µM] | Compound | also measured
 |  | 1 to 10 | 1 to 10 |  |  |  |  | COc1cc(-c2cccc3cc([C@H](C)Nc4nc(N)ncc4C(=O)NC4CC4)n(-c4ccccc4)c(=O)c23)ccn1 [Compound 441] | EC50 (Balb/c splenic B cells; Greater than 1 μM to 10 μM): 1 to 10 µM
1 to 10 |  |  |  | < 0.1 | 1 to 10 | < 0.1 | 1 to 10 | COc1cc(-c2cccc3cc([C@H](C)Nc4nc(N)ncc4C#N)n(-c4ccccc4)c(=O)c23)ccn1 [Compound 49] | EC50 (Balb/c splenic B cells; [6]): < 0.1 µM
1 to 10 |  |  |  |  |  |  |  | C[C@H](Nc1nc(N)ncc1C#N)c1cc2cccc(-c3cccc(N(C)S(C)(=O)=O)c3)c2c(=O)n1-c1ccccc1 [Compound 153] | IC50 (PI3Kδ; [6]): < 0.1 µM; EC50 (Balb/c splenic B cells; [6]): < 0.1 µM; IC50 (PI3Kγ; [6]): < 0.1 µM; IC50 (PI3Kα; [6]): 0.1 to 1 µM
 |  | 1 to 10 | 1 to 10 |  |  |  |  | C[C@H](Nc1nc(N)ncc1C#N)c1cc2cccc(-c3ccn(C)c(=O)c3)c2c(=O)n1-c1ccccc1 [Compound 182] | 
1 to 10 | 1 to 10 |  |  | 0.1 to 1 | 1 to 10 | < 0.1 |  | CC(C)n1c([C@H](C)Nc2nc(N)ncc2C#N)cc2cccc(-c3ccc(=O)n(C)c3)c2c1=O [Compound 326] | IC50 [4, 10]: 0.1 to 1 µM
 |  | 1 to 10 | 1 to 10 |  |  |  |  | C[C@H](Nc1nc(N)ncc1C(=O)N1CC(F)(F)C1)c1cc2cccc(Cl)c2c(=O)n1-c1ccccc1 [Compound 434] | 
 | 1 to 10 | 1 to 10 | 1 to 10 | 0.1 to 1 |  | < 0.1 |  | C[C@H](Nc1nc(N)ncc1C(=O)C1CC1)c1cc2cccc(Cl)c2c(=O)n1-c1ccccc1 [Compound 425] | 
 |  | 1 to 10 | 1 to 10 |  |  |  |  | COc1cc(-c2cccc3cc([C@H](C)Nc4nc(N)ncc4C(=O)N(C)CCO)n(-c4ccccc4)c(=O)c23)ccn1 [Compound 114] | 
1 to 10 | 1 to 10 |  |  |  | 1 to 10 | < 0.1 |  | CC(C)n1c([C@H](C)Nc2ncnc(N)c2C#N)cc2cccc(-c3ccc(=O)n(C)c3)c2c1=O [Compound 359] | IC50 ([1]; range between 1 μM and 10 μM): 1 to 10 µM; IC50 [4, 10]: 0.1 to 1 µM
1 to 10 | 1 to 10 |  |  | 0.1 to 1 | 1 to 10 | < 0.1 | 1 to 10 | COc1ncc(-c2cccc3cc([C@H](C)Nc4nc(N)ncc4-c4cncs4)n(-c4ccccc4)c(=O)c23)cn1 [Compound 389] | 
 |  | 1 to 10 | 1 to 10 |  |  |  |  | C[C@H](Nc1cc(Cl)ncn1)c1cc2cccc(Cl)c2c(=O)n1-c1ccccc1 [Compound 77, (S)-8-chloro-3-(1-(6-chloropyrimidin-4-ylamino)ethyl)-2-phenylisoquinolin-1(2H)-one] | 
 |  |  |  | 0.1 to 1 | > 10 | < 0.1 | > 10 | COc1nc(-c2cnc(N)nc2N[C@@H](C)c2cc3cccc(-c4ccc(=O)n(C)c4)c3c(=O)n2-c2ccccc2)cs1 [Compound 391] | 
